Test results taken from patent US12568967B2, “Compositions comprising pyridine carboxylate herbicides with synthetic auxin herbicides or auxin transport inhibitors” (priority 2018, dated 2026).
“And” between values parts separate entries of the source, which are not always exact repeats. Equal entries are not always repeated.

Tests used:
[1] = test system: Viola tricolor (wild pansy, VIOTR); assay: Greenhouse postemergence trial VIOTR;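 also: greenhouse plants sprayed at second to third true leaf stage, injury rated visually after 20-22 d against solvent-blank sprayed controls, 0 meaning no injury and 100 complete kill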
[2] = test system: Sorghum vulgare (grain sorghum, SORVU); assay: Greenhouse postemergence trial SORVU; type: in vivo; settings: Compound A 10 g/ha
Protocol: (§1) Seeds of the desired test plant species were planted in a 90:10% v/v (volume/volume) mixture of PRO-MIX® BX (Premier Tech Horticulture, Quakertown, PA, USA) and PROFILE® GREENS GRADE™ (Profile Products LLC, Buffalo Grove, IL, USA) planting mixture, which typically has a pH of 5.2 to 6.2 and an organic matter content of at least 50 percent, in plastic pots with a surface area of 103.2 square centimeters (cm^2). […] The plants were grown for 7-36 days (d) in a greenhouse with an approximate 14-hour (h) photo-period which was maintained at about 23° C. during the day and 22° C. during the night. Nutrients and water were added on a regular basis and supplemental lighting was provided with overhead metal halide 1000-Watt lamps as necessary. The plants were employed for testing when they reached the second or third true leaf stage.
Emulsifiable concentrates of each of each pyridine carboxylate herbicide (Compound A or Compound B) were prepared at 100 grams acid equivalent per liter (g ae/L). The emulsifiable concentrates also included a safener, cloquintocet-mexyl, at 120 grams active ingredient per liter (g ai/L), unless otherwise noted below. An aliquot of each emulsifiable concentrate was placed in a 25 mL glass vial and diluted with an aqueous mixture of 1.25% (v/v) ACTIROB® B esterified rapeseed oil (Bayer Crop Science, Research Triangle Park, NC, USA) or MSO® Concentrate with LECI-TECH® methylated soybean oil (Loveland Products, Loveland, CO, USA) to obtain concentrated stock solutions at the highest application rate for each herbicide, based upon a 12 milliliter (mL) application volume at a rate of 187 liters per hectare (L/ha). The concentrated stock solutions were further diluted with an aqueous mixture of 1.25% v/v ACTIROB® B or MSO® Concentrate with LECI-TECH® to obtain stock solutions at reduced application rates for each herbicide. Spray solutions of the herbicide combinations (Compound A or Compound B plus synthetic auxin herbicide or auxin transport inhibitor) were prepared by adding weighed amounts or aliquots of the synthetic auxin herbicide or auxin transport inhibitor to the stock solutions of Compound A or Compound B to form 12-mL spray solutions in two-way combinations. […]
(§2) The treated plants and control plants were placed in a greenhouse as described above and watered by sub-irrigation to prevent wash-off of the test compounds. After 20-22 d, the condition of the test plants as compared with that of the control plants was determined visually and scored on a scale of 0 to 100 percent where 0 corresponds to no injury and 100 corresponds to complete kill.

[3] = test system: Matricaria inodora (false chamomile, MATIN); assay: Greenhouse postemergence trial MATIN; type: in vivo; settings: MATIN; for % visual injury, Obs: applied alone
Protocol: as §1
(§3) Emulsifiable concentrates of each of each pyridine carboxylate herbicide (Compound A or Compound B) were prepared at 100 grams acid equivalent per liter (g ae/L). The emulsifiable concentrates also included a safener, cloquintocet-mexyl, at 120 grams active ingredient per liter (g ai/L), unless otherwise noted below. An aliquot of each emulsifiable concentrate was placed in a 25 mL glass vial and diluted with an aqueous mixture of 1.25% (v/v) ACTIROB® B esterified rapeseed oil (Bayer Crop Science, Research Triangle Park, NC, USA) or MSO® Concentrate with LECI-TECH® methylated soybean oil (Loveland Products, Loveland, CO, USA) to obtain concentrated stock solutions at the highest application rate for each herbicide, based upon a 12 milliliter (mL) application volume at a rate of 187 liters per hectare (L/ha). The concentrated stock solutions were further diluted with an aqueous mixture of 1.25% v/v ACTIROB® B or MSO® Concentrate with LECI-TECH® to obtain stock solutions at reduced application rates for each herbicide. Spray solutions of the herbicide combinations (Compound A or Compound B plus synthetic auxin herbicide or auxin transport inhibitor) were prepared by adding weighed amounts or aliquots of the synthetic auxin herbicide or auxin transport inhibitor to the stock solutions of Compound A or Compound B to form 12-mL spray solutions in two-way combinations.
(§4) The spray solutions were applied to the plant material with an overhead Mandel track sprayer equipped with 8002E nozzles calibrated to deliver 187 L/ha over an application area of 0.503 square meters (m^2) at a spray height of 18 inches (43 centimeters (cm)) above the average plant canopy. Control plants were sprayed in the same manner with the solvent blank. All pyridine carboxylate herbicide (component a) application rates are given as “g ae/ha” and all synthetic auxin herbicide or auxin transport inhibitor (component b) application rates are given as “g ai/ha.”
as §2

[4] = test system: Papaver rhoeas (corn poppy, PAPRH); assay: Greenhouse postemergence trial PAPRH; type: in vivo; settings: PAPRH; for % visual injury Obs: alone; for % visual injury, Obs: applied alone
Protocol: as §1, §3, §4, §2

[5] = test system: Matricaria discoidea (pineapple weed, MATMT); assay: Greenhouse postemergence trial MATMT; type: in vivo; settings: MATMT; for % visual injury Obs: alone; for % visual injury, Obs: applied alone
Protocol: as §1, §3, §4, §2

[6] = test system: Amaranthus retroflexus (pigweed, AMARE); assay: Greenhouse postemergence trial AMARE; type: in vivo;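 also: Greenhouse-grown plants sprayed at second to third true leaf stage, injury rated by eye after 20-22 d versus solvent-blank sprayed controls, 0 = no injury, 100 = complete kill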
[7] = test system: Kochia scoparia (kochia, KCHSC); assay: Greenhouse postemergence trial KCHSC; type: in vivo
[8] = Compound A 10 g/ha, without safener
[9] = Viola tricolor, post-emergence, read-out: % visual injury Obs

## N#CCOC(=O)c1nc(-c2ccc3cc[nH]c3c2F)c(F)c(N)c1Cl [Compound A, cyanomethyl 4-amino-3-chloro-5-fluoro-6-(7-fluoro-1H-indol-6-yl)pyridine-2-carboxylate]
[1]; Compound A 10 g/ha
  VIOTR Obs (% visual injury): 18%
[1]; [8]
  VIOTR Obs (% visual injury): 15%
[1]; VIOTR, Compound A 10 g/ha
  % visual injury Obs: 30%
  % visual injury, Obs: 15%
[1]; VIOTR, Compound A 10 g/ha alone
  visual injury, Obs: 30%
[1]; VIOTR, Compound A 15 g/ha alone
  visual injury, Obs: 50%
[1]; VIOTR, alone, 10 g/ha
  % visual injury (Obs): 23%
  % visual injury Obs: 30%
[1]; VIOTR, alone, 15 g/ha
  % visual injury Obs: 50%
[1]; VIOTR, applied alone, 10 g/ha
  % visual injury, Obs: 30%
[1]; VIOTR, applied alone, 15 g/ha
  % visual injury, Obs: 50%
[1]; [9]
  pest or weed control at 10 g/ha: 30%
  pest or weed control at 15 g/ha: 50%
[2]; without safener
  SORVU Obs (% visual injury): 0%
[2]; SORVU
  % visual injury, Obs: 0%
[3]; Compound A 10 g/ha alone
  visual injury, Obs: 60%
[3]; Compound A 15 g/ha alone
  visual injury, Obs: 60%
[3]; alone 10 g/ha
  % visual injury (Obs): 93%
  % visual injury Obs: 60%
[3]; alone, 15 g/ha
  % visual injury Obs: 60%
[3]; 10 g/ha
  % visual injury, Obs: 60%
[3]; 15 g/ha
  % visual injury, Obs: 60%
[3]; Tripleurospermum inodorum, post-emergence, Compound A 7.5 g/ha, read-out: % visual injury Obs
  pest or weed control at […]: 30%
[3]; Tripleurospermum inodorum, post-emergence, Compound A 10 g/ha, read-out: % visual injury Obs
  pest or weed control at 10 g/ha: 60%
[3]; Tripleurospermum inodorum, post-emergence, Compound A 15 g/ha, read-out: % visual injury Obs
  pest or weed control at 15 g/ha: 60%
[4]; Compound A 10 g/ha alone
  visual injury, Obs: 100%
[4]; Compound A 15 g/ha alone
  visual injury, Obs: 100%
[4]; 10 g/ha
  % visual injury Obs: 100%
  % visual injury, Obs: 100%
[4]; 15 g/ha
  % visual injury Obs: 100%
  % visual injury, Obs: 100%
[4]; Papaver rhoeas, post-emergence, Compound A 7.5 g/ha, read-out: % visual injury Obs
  pest or weed control at […]: 100%
[4]; Papaver rhoeas, post-emergence, Compound A 10 g/ha, read-out: % visual injury Obs
  pest or weed control at 10 g/ha: 100%
[4]; Papaver rhoeas, post-emergence, Compound A 15 g/ha, read-out: % visual injury Obs
  pest or weed control at 15 g/ha: 100%
[5]; Compound A 10 g/ha alone
  visual injury, Obs: 5%
[5]; Compound A 15 g/ha alone
  visual injury, Obs: 15%
[5]; 10 g/ha
  % visual injury Obs: 5%
  % visual injury, Obs: 5%
[5]; 15 g/ha
  % visual injury Obs: 15%
  % visual injury, Obs: 15%
[5]; Matricaria discoidea, post-emergence, Compound A 7.5 g/ha, read-out: % visual injury Obs
  pest or weed control at […]: 5%
[5]; Matricaria discoidea, post-emergence, Compound A 10 g/ha, read-out: % visual injury Obs
  pest or weed control at 10 g/ha: 5%
[5]; Matricaria discoidea, post-emergence, Compound A 15 g/ha, read-out: % visual injury Obs
  pest or weed control at 15 g/ha: 15%
[6]; AMARE, Compound A 10 g/ha
  % visual injury, Obs: 100% and 90%
[6]; AMARE, alone 10 g/ha
  % visual injury (Obs): 98% and 90%
[6]; AMARE, applied alone, 10 g/ha
  % visual injury, Obs: 85%
[6]; Compound A 10 g/ha
  AMARE Obs (% visual injury): 100% and 98%
[6]; Compound A 10 g/ha (Table 42)
  AMARE % visual injury Obs: 100%
[6]; Compound A 10 g/ha (Table 43)
  AMARE % visual injury Obs: 100%
[6]; Compound A 10 g/ha (Table 44)
  AMARE % visual injury Obs: 100%
[7]; Bassia scoparia, post-emergence, KCHSC, Compound A 7.5 g/ha, read-out: % visual injury Obs
  pest or weed control at […]: 70%
[7]; Bassia scoparia, post-emergence, KCHSC, Compound A 10 g/ha, read-out: % visual injury Obs
  pest or weed control at 10 g/ha: 75%
[7]; Bassia scoparia, post-emergence, KCHSC, Compound A 15 g/ha, read-out: % visual injury Obs
  pest or weed control at 15 g/ha: 80%
[7]; Compound A 10 g/ha
  KCHSC Obs (% visual injury): 65% and 55%
[7]; Compound A 10 g/ha (Table 42)
  KCHSC % visual injury Obs: 65%
[7]; Compound A 10 g/ha (Table 43)
  KCHSC % visual injury Obs: 65%
[7]; Compound A 10 g/ha (Table 44)
  KCHSC % visual injury Obs: 65%
[7]; [8]
  KCHSC Obs (% visual injury): 88%
[7]; KCHSC, Compound A 10 g/ha
  % visual injury Obs: 75%
  % visual injury, Obs: 65% and 70% and 88%
[7]; KCHSC, Compound A 10 g/ha alone
  visual injury, Obs: 75%
[7]; KCHSC, Compound A 15 g/ha alone
  visual injury, Obs: 80%
[7]; KCHSC, alone 10 g/ha
  % visual injury (Obs): 68% and 55% and 70%
  % visual injury Obs: 75%
[7]; KCHSC, alone, 15 g/ha
  % visual injury Obs: 80%
